Results as given in patent US6013642A, “Use of estrone derivatives as steroid sulphatase inhibitors” (priority 1994, dated 2000).

How the values were obtained:
[1] = tested on: mouse contact sensitisation model; experiment: Contact sensitisation (oxazalone, ear swelling) in mice; format: in vivo; conditions: for ear swelling response (steroid alone) / normal ear swelling (steroid alone): 5 mg/kg s.c. days 0 and 4; for increase in ear thickness (steroid alone): 100 μg/mouse s.c. days 0, 4 and 5; for normal ear swelling (steroid alone): Experiment 4, FIG. 7
Experimental: 1. Contact Sensitisation (CS)
On day 0, mice were painted on their shaved right flank with 50 μl 2.5% oxazalone or vehicle (acetone 4:1 olive oil). On day 5 animals were challenged on their dorsal right ear surface with 25 μl of either 0.75% or 0.25% oxazalone. Prior to ear challenge, and 24, 48 and 72 hour post challenge ear thickness was measured using an engineer's micrometers. Ear swelling is determined as the difference in thickness prior and post challenge. The data are expressed as percentage change from the vehicle treated groups given sensitisation and challenge.
DHEA, DHEAS were administered at various times, generally at time of sensitisation (day 0) and time of challenge (day 3 or 4-DTH model, day 4 or 5-(CS-model) in order to obtain an augmentation of the immune response above non-steroid treated animals.
Different doses of the inhibitors have been used, and compared to the effect of dexamethasone as potential immunosuppressive/anti-inflammatory agents.

[2] = tested on: mouse delayed type hypersensitivity model; experiment: Delayed type hypersensitivity (SRBC, footpad swelling) in the mouse; format: in vivo; conditions: FIG. 11; 5 mg/kg s.c.; 24 h post challenge
Experimental: 2. Delayed Type Hypersensitivity (DTH)
On day 0, animals were injected intravenously with 10^6 washed SRBC in 0.1 ml saline. Four days later animals were challenged in the right hind footpad with 10^6 washed SRBC in 50 μl saline. Footpad thickness is measured prior to challenge, 24, 48 and 72 hours post challenge using calipers. Footpad swelling is determined as the difference in thickness prior and post challenge. The data are expressed as percentage change from the vehicle treated groups given sensitisation and challenge.
Animals were randomised into 10 groups (n=7-8) and steroids given on day 0 and 4.
Steroids were given on day 0 and 3 subcutaneously. Response at 24 h post challenge. Results given as mean±sem. $, *p<0.05 ANOVA.

[3] = tested on: mouse contact sensitisation model; experiment: Cellular infiltrate (anti-CD3 / anti-Mac-1 positive cells) in challenged ears, contact sensitisation; format: in vivo, mice; conditions: Experiment 7, FIG. 10; DHEAS 5 mg/kg days 0 and 5; 24 h following challenge
Experimental: Animals were randomised into 7 groups (n=7-10) and steroids given on days 0 and 5. At 24 h following challenge, ears were removed, fixed and stained with either an anti-CD3 (T-cells) or anti-Mac-1 (monocytes/macrophages) antibody and the number of positive cells counted in 10 random fields.

carrageenan pleurisy = experiment: Carrageenan pleurisy; format: in vivo, Wistar Rats; conditions: FIG. 14; DEX 1 mg/kg p.o. at T=-1 h; six hours
Experimental: Wistar Rats were anaesthetised and given intra-pleural injections of 0.5% carrageenan in saline at time 0. Six hours later the animals were killed and pleural cavity lavaged with 1 ml. citrated saline. Volume of fluid exudate and exudate cell concentration were measured. Animals were randomised to 5 treatment groups (n=6).

[4] = Metabolites Experiment 3, FIG. 17
[5] = Experiment 1, FIG. 4, 48 post challenge
[6] = Experiment 2, FIG. 5, 100 μg/mouse s.c. days 0 and 5, 24 h post-challenge

Compound | ear swelling response (steroid alone) [1, 4] | increase in ear thickness (steroid alone) [1, 5] | ear swelling response [1, 6] | normal ear swelling (steroid alone) [1] | foot swelling response (steroid alone) [2] | also measured
CC12CCC(OS(=O)(=O)O)CC1=CCC1C2CCC2(C)C(O)CCC12 (stereo not drawn) [AEDS] | stimulatory response |  |  |  |  | ear swelling response ([1]; Metabolites Experiment 2, FIG. 16, AEDS 0.0005-5 mg/kg s.c. days 0 and 4): can augment the ear swelling response; dose for augmentation of ear swelling, less than seen with DHEAS ([1]; Metabolites Experiment 2, FIG. 16, relative to DHEAS): at least 1000 fold; substrate for the sulphatase enzyme in vivo [1, 4]: can serve as a physiological substrate for the sulphatase enzyme in vivo
CN(C)S(=O)(=O)Oc1ccc2c(c1)CC[C@@H]1[C@@H]2CC[C@]2(C)C(=O)CC[C@@H]12 [CT 2210, Estrone-3-0-(N,N-dimethyl)sulphamate] |  |  |  |  |  | ear swelling, inhibitor alone ([1]; Experiment 1, FIG. 4, 2 mg/mouse s.c. days 0, 4 and 5, 48 post challenge): able to attenuate the ear swelling seen in the absence of DHEA and DHEAS; reversal of stimulatory effects of DHEA and DHEAS on ear swelling ([1]; Experiment 1, FIG. 4, inhibitor 2 mg/mouse with DHEA or DHEAS 100 μg/mouse s.c. days 0, 4 and 5, 48 post challenge): able to reverse the stimulatory effects of either DHEA and DHEAS
C[C@]12CC[C@H](O)CC1=CC[C@@H]1[C@@H]2CC[C@]2(C)C(=O)CC[C@@H]12 [DHEA, Dehydroepiandrosterone] |  | augmented the normal increase in ear thickness | significantly augmented the response | augmented the normal ear swelling | clearly pro-immune (or pro-inflammatory) | ear swelling response ([1]; Metabolites Experiment 1, FIG. 15, DHEA 0.005-5 mg/kg, AED 0.05-5 mg/kg s.c. days 0 and 4): can augment the ear swelling response
C[C@]12CC[C@H](OS(=O)(=O)O)CC1=CC[C@@H]1[C@@H]2CC[C@]2(C)C(=O)CC[C@@H]12 [DHEAS, DHEA sulphate] | stimulatory response | augmented the normal increase in ear thickness | significantly augmented the response | augmented the normal ear swelling | clearly pro-immune (or pro-inflammatory) | immune and inflammatory cell infiltrate into challenged ears [3]: can augment both immune and inflammatory cell infiltrate into challenged ears; anti-glucocorticoid effect on ear swelling ([1]; Experiment 3, FIG. 6, DHEAS 0.0005-50 mg/kg with corticosterone 5 mg/kg s.c. days 0 and 4): functional anti-glucocorticoid effect
C[C@@H]1C[C@H]2[C@@H]3CCC4=CC(=O)C=C[C@]4(C)[C@@]3(F)[C@@H](O)C[C@]2(C)[C@@]1(O)C(=O)CO [Dexamethasone, dexamethasone] |  | reduced the response | inhibited | inhibited |  | degree of ear swelling ([1]; Experiment 5, FIG. 8, DEX 5 mg/kg s.c. days 0 and 4, 24 h): inhibited the degree of ear swelling; fluid leakage (exudate) (carrageenan pleurisy): can completely inhibit fluid leakage; reduction of cellular influx (carrageenan pleurisy): 68%
